Measurements as given in PubChem BioAssay AID2060490 (Molecular Pharmacology Branch, DTP, NCI, 2025).
Where “and” joins values, the source holds several entries; their conditions need not be identical. Equal entries are not always repeated.

System: 885512-296-R-J2-PDC complex spheroid viability
Test: Anticancer human tumor 885512-296-R-J2-PDC patient-derived breast carcinoma cell line growth inhibition [GQUAD]
Conditions: for viability, T/C: stronger effect = lower value
From the text: DNA G-quadruplex Stabilizer Agents in Combinations in Complex Spheroids
A high-throughput screen of multi-cell type tumor spheroids was designed to identify active combinations of DNA G-quadruplex stabilizer agents and targeted small molecules. Complex spheroids include a stromal component modeled by human endothelial cells (HUVEC) and fibroblasts modeled by human mesenchymal stem cells (MSCs). The concentration ranges selected for each drug and investigational agent were based upon clinically achievable concentrations if the clinical Cmax of the agent was known.
Compounds. The drugs and investigational agents: pidnarulex (CX-5461; NSC782164), APTO-253 (NSC789042), BRACO-19 (NSC847499), peposertib (NSC802822), ceralasertib (NSC780249), elimusertib (NSC800525), camonsertib (NSC841442), AZD-1390 (NSC803789), olaparib (NSC753686), talazoparib (NSC767125), ART-558 (NSC835418), sotorasib (NSC818433), MRTX-1133 (NSC836407), SN-38 (NSC673596), topotecan (NSC609699), etoposide (NSC141540), doxorubicin (NSC123127), gemcitabine (NSC613327), 5-fluorouracil (NSC19893), paclitaxel (NSC125973), vemurafenib (NSC761431), panobinostat (NSC761190), R-306465 (JNJ-16241199; NSC773264), adavosertib (NSC754352), TP-3654 (NSC805149), carboplatin (NSC241240), KSQ-4279 (NSC840948), and staurosporine (NSC755774) were obtained from the National Cancer Institute (NCI) Developmental Therapeutics Program Chemical Repository (34). The FDA-approved anticancer drug set is available from the NCI Developmental Therapeutics Program. […] The stock solutions were prepared in dimethyl sulfoxide (DMSO, Sigma-Aldrich, St. Louis, MO, cat. D2650) at 800-fold the tested concentration and stored at -70 degrees C prior to their use. All drugs and investigational agents were tested over a range starting from a high concentration at or near the clinical Cmax and decreasing in half-log increments. If the clinical Cmax for an agent had not been determined, the highest concentration tested was 10 microM.
2.3 Cell Culture. All cells were maintained in an incubator at 37 degrees C and 5% CO2 with 95% humidity. The PDC lines were cultured according to standard operating procedures established by the NCI PDMR. All PDCs were thawed and cultured in Matrigel-coated flasks prepared with a working solution of 1X Ham's F-12 nutrient mix, without supplementation (Invitrogen, cat. 11765054), 100 U/mL penicillin-streptomycin (Invitrogen, cat. 15140122), and 2.5% Matrigel (Corning Inc., cat. 354248) for the first three passages. The 857933-349-R-J2-PDC line was cultured in 6C/Colon 1B media, which includes advanced DMEM/F-12 (Thermo Fisher Scientific, cat. 12634028), 10 mM HEPES (Thermo Fisher Scientific, cat. 15630080), 1X GlutaMAX supplement (Thermo Fisher Scientific, cat. 35050061), 0.1 mg/mL primocin (InvivoGen, cat. ant-pm-2), 10% defined fetal bovine serum, heat inactivated (HyClone Laboratories Inc., cat. SH30070.03HI), 50% L-WRN conditioned media (ATCC, cat. CRL-3276), 1.25 mM N-Acetyl-L-cysteine (Sigma-Aldrich, cat. A9165), 10 mM nicotinamide (Sigma-Aldrich, cat. N0636), 1X B-27 supplement (Thermo Fisher Scientific, cat. 17504044), 1X N-2 supplement (Thermo Fisher Scientific, cat. 17502048), 10 microM Y-27632 dihydrochloride (Tocris Bioscience, cat. 1254), and 50 ng/mL human EGF recombinant protein (Thermo Fisher Scientific, cat. PHG0311). The 485176-168-R4-J1-PDC line was cultured in Panc media, which includes all 6C/Colon 1B media components plus 100 ng/mL human FGF-10 (Thermo Fisher Scientific, cat. 100-26), 500 nM SB-431542 (Selleckchem, cat. S1067), and gastrin (Tocris, cat. 3006).
[…]
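Note: spheroids exposed to the compounds for one week.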
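Throughout, for viability, T/C: percent of tumor spheroid viability relative to DMSO vehicle control wells.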

Molecule `CC(C)(O)C1CCC(Nc2ccc3ncc(-c4cccc(C(F)(F)F)c4)n3n2)CC1` (stereo not drawn) + CN(C)c1ccc(Nc2c3ccc(NC(=O)CCN4CCCC4)cc3nc3cc(NC(=O)CCN4CCCC4)ccc23)cc1 has an IC50 (curve of first compound, second compound 0.0316 µM) of 1720 nM, an IC50 (curve of first compound, second compound 0.1 µM) of 1510 nM and an IC50 (curve of first compound, second compound 0.316 µM) of 1560 nM. The IC50 (curve of first compound, second compound 1 µM) was 1550 nM, the IC50 (curve of first compound, second compound 3.16 µM) was 1030 nM and the IC50 (curve of first compound, second compound 10 µM) was less than 31.6 nM. For the same molecule, the viability, T/C (second compound 0.0316 µM, first compound 0.0316 µM) was 111%, the viability, T/C (second compound 0.0316 µM, first compound 0.1 µM) was 99.6% and the viability, T/C (second compound 0.0316 µM, first compound 0.316 µM) was 105%. The viability, T/C (second compound 0.0316 µM, first compound 1 µM) was 78.7%, the viability, T/C (second compound 0.0316 µM, first compound 3.16 µM) was 11.9% and the viability, T/C (second compound 0.0316 µM, first compound 10 µM) was 23.8%. It also gave a viability, T/C (second compound 0.1 µM, first compound 0.0316 µM) of 99.6%, a viability, T/C (second compound 0.1 µM, first compound 0.1 µM) of 95% and a viability, T/C (second compound 0.1 µM, first compound 0.316 µM) of 97.9%. The viability, T/C (second compound 0.1 µM, first compound 1 µM) was 68.4%, the viability, T/C (second compound 0.1 µM, first compound 3.16 µM) was 15.2% and the viability, T/C (second compound 0.1 µM, first compound 10 µM) was 18.6%. For the same molecule, the viability, T/C (second compound 0.316 µM, first compound 0.0316 µM) was 106%, the viability, T/C (second compound 0.316 µM, first compound 0.1 µM) was 98.6% and the viability, T/C (second compound 0.316 µM, first compound 0.316 µM) was 86.3%. It also gave a viability, T/C (second compound 0.316 µM, first compound 1 µM) of 72.2%, a viability, T/C (second compound 0.316 µM, first compound 3.16 µM) of 9.35% and a viability, T/C (second compound 0.316 µM, first compound 10 µM) of 19.9%. For the same molecule, the viability, T/C (second compound 1 µM, first compound 0.0316 µM) was 92.7%, the viability, T/C (second compound 1 µM, first compound 0.1 µM) was 92.4% and the viability, T/C (second compound 1 µM, first compound 0.316 µM) was 86.3%. For the same molecule, the viability, T/C (second compound 1 µM, first compound 1 µM) was 72.5%, the viability, T/C (second compound 1 µM, first compound 3.16 µM) was 9.81% and the viability, T/C (second compound 1 µM, first compound 10 µM) was 16.3%. It also gave a viability, T/C (second compound 3.16 µM, first compound 0.0316 µM) of 102%, a viability, T/C (second compound 3.16 µM, first compound 0.1 µM) of 87.9% and a viability, T/C (second compound 3.16 µM, first compound 0.316 µM) of 80.5%. It also gave a viability, T/C (second compound 3.16 µM, first compound 1 µM) of 54.9%, a viability, T/C (second compound 3.16 µM, first compound 3.16 µM) of 4.35% and a viability, T/C (second compound 3.16 µM, first compound 10 µM) of 4.39%. It also gave a viability, T/C (second compound 10 µM, first compound 0.0316 µM) of 16.9%, a viability, T/C (second compound 10 µM, first compound 0.1 µM) of 12.6% and a viability, T/C (second compound 10 µM, first compound 0.316 µM) of 16%. For the same molecule, the viability, T/C (second compound 10 µM, first compound 1 µM) was 8.44%, the viability, T/C (second compound 10 µM, first compound 3.16 µM) was 0.72% and the viability, T/C (second compound 10 µM, first compound 10 µM) was 0.22%.
In the case of `COc1ccc([C@@H](O)c2cc(-c3ncnc4cc(N5CCOCC5)ccc34)c(F)cc2Cl)nn1`, the viability, T/C (compound 0.0316 µM) is reported as 110% and 101% and 96%, the viability, T/C (compound 0.1 µM) is reported as 103% and 106% and 92.4% and the viability, T/C (compound 0.316 µM) is reported as 101% and 89.6% and 92.7%. For the same molecule, the viability, T/C (compound 1 µM) was 97.4% and 79.5% and 91.5%, the viability, T/C (compound 3.16 µM) was 79.2% and 89.1% and 88.5% and the viability, T/C (compound 10 µM) was 64.3% and 53.6% and 58.4%. The IC50 (curve of compound) was greater than 10000 nM.
With `Cc1[nH]c2ccc(F)cc2c1-c1nc2c3cccnc3c3ncccc3c2[nH]1` the viability, T/C (compound 0.0316 µM) was 99.9% [middle of 12 runs], the viability, T/C (compound 0.1 µM) was 101% [middle of 12 runs] and the viability, T/C (compound 0.316 µM) was 97.9% [middle of 12 runs]. The viability, T/C (compound 1 µM) was 76.9% [middle of 12 runs], the viability, T/C (compound 10 µM) was 3.15% [middle of 12 runs] and the IC50 (compound alone, run of 04/16/2024) was 1.75 µM [middle of 8 runs]. The IC50 (compound alone, run of 04/22/2024) was 1.54 µM [middle of 4 runs].
For `C#Cc1c(F)ccc2cc(O)cc(-c3ncc4c(N5CC6CCC(C5)N6)nc(OCC56CCCN5CC(F)C6)nc4c3F)c12` (stereo not drawn), the viability, T/C (compound 0.0316 µM) was 107% and 90.4% and 97.3%, the viability, T/C (compound 0.1 µM) was 97.7% and 92% and 97.9% and the viability, T/C (compound 0.316 µM) was 109% and 86.7% and 97.7%. The viability, T/C (compound 1 µM) was 90.1% and 70.5% and 98.3%, the viability, T/C (compound 3.16 µM) was 106% and 14% and 100% and the viability, T/C (compound 10 µM) was 83.4% and 22.4% and 90.7%. For the same molecule, the IC50 (curve of compound) was > 10000 nM and 1570 nM.
With `O=C(NO)c1cnc(N2CCN(S(=O)(=O)c3ccc4ccccc4c3)CC2)nc1` the viability, T/C (compound 0.316 µM) was 3.89% and 20.5% and 27.5%, the viability, T/C (compound 1 µM) was 2.64% and 2.67% and 5.87% and the viability, T/C (compound 3.16 µM) was 4.12% and 0.29% and 0.35%. The viability, T/C (compound 10 µM) was 3.42% and 1.01% and 0.1% and the IC50 (curve of compound) was < 31.6 nM and 121 nM and 187 nM.
